The source of these data is patent US12252524B2, “GIP/GLP1 co-agonist compounds” (Eli Lilly and Company, priority 2018, dated 2025).

As usually defined, the EC50 is the concentration that produces a half-maximal response.

Molecules are shown by their SMILES. Numbered stars: 1 amine (or outer) side, 2 acyl side, 3 side chain; on linkers, the order of the positions; unused ones are H or OH. Square brackets hold non-standard residues; d marks the D form. Side chains are listed from the residue outwards. Peptide text beside a SMILES is read from it. * marks the point of attachment. C20 diacid = O=C(O)CCCCCCCCCCCCCCCCCCC(=O)*; αMePhe(2-F) = C[C@](N)(Cc1ccccc1F)C(=O)O; γGlu = O=C(O)[C@H](CCC(=O)[*:2])N[*:1]; 3Pal = N[C@@H](Cc1cccnc1)C(=O)O; αMeL = CC(C)C[C@](C)(N)C(=O)O; αMeP = C[C@@]1(C(=O)O)CCCN1; Orn = NCCC[C@H](N)C(=O)O; AEEA = NCCOCCOCC(=O)O; Aib = CC(C)(N)C(=O)O

Experiment [1] has as its target human GLP-1 receptor (GLP-1R) (Homo sapiens, UniProt P43220). Put plainly: cAMP pharmacological functional assay in presence of casein, hGLP-1R. To be noted: HEK293 cells expressing hGLP-1R, 0.1% Casein, geometric mean; read-out: hGLP1R cAMP Rel EC50 nM (SEM, n). In kind it is cell-based.
Experiment [2] deals with T1, gastric inhibitory peptide receptor (GIPR) (Homo sapiens, UniProt P48546).
T1 sequence (P48546 22-466): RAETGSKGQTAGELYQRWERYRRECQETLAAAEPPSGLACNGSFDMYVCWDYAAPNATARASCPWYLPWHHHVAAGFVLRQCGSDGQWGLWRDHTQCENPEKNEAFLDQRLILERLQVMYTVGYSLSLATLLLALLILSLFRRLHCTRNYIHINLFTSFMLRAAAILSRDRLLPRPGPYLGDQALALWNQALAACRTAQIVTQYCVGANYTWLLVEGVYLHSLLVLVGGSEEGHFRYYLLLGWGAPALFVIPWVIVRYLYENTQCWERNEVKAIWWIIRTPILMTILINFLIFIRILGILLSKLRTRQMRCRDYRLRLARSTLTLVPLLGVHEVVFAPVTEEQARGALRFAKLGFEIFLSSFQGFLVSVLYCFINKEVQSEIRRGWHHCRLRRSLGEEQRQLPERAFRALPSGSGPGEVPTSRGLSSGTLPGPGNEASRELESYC
Put plainly: cAMP pharmacological functional assay in presence of casein, hGIPR. In kind it is cell-based. Conditions: HEK293 cells expressing hGIPR, 0.1% Casein, geometric mean; read-out: hGIPR cAMP Rel EC50 nM (SEM, n).

human GLP-1 receptor (GLP-1R), sequence (P43220 24-463): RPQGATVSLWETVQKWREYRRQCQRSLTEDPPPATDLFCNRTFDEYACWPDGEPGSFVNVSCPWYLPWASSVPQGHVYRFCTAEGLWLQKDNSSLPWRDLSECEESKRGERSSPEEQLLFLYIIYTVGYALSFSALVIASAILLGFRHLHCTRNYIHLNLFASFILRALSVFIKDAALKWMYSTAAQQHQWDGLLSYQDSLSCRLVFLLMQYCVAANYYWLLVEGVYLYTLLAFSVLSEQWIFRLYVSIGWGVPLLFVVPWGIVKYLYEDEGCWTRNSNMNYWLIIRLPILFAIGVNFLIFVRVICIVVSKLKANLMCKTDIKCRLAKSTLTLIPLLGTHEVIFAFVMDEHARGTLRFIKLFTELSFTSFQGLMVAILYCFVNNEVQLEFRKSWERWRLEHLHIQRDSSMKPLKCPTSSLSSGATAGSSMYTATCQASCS

Turning to `CC[C@H](C)[C@H](NC(=O)[C@H](CC(C)C)NC(=O)[C@H](Cc1ccc(O)cc1)NC(=O)[C@H](CCC(=O)O)NC(=O)[C@@H](NC(=O)[C@H](Cc1ccccc1)NC(=O)[C@H](C)NC(=O)[C@H](CCC(N)=O)NC(=O)[C@H](CCC(N)=O)NC(=O)[C@H](C)NC(=O)[C@H](CCCCNC(=O)COCCOCCNC(=O)COCCOCCNC(=O)CC[C@H](NC(=O)CCCCCCCCCCCCCCCCCCC(=O)O)C(=O)O)NC(=O)[C@H](CCCNC(=N)N)NC(=O)[C@H](CC(=O)O)NC(=O)[C@H](CC(C)C)NC(=O)[C@H](CC(C)C)NC(=O)[C@@H](NC(=O)[C@H](CO)NC(=O)[C@H](Cc1ccc(O)cc1)NC(=O)[C@H](CC(=O)O)NC(=O)[C@H](CO)NC(=O)[C@@H](NC(=O)[C@H](Cc1ccccc1)NC(=O)[C@@H](NC(=O)CNC(=O)[C@H](CCC(=O)O)NC(=O)[C@]1(C)CCCN1C(=O)[C@@H](N)Cc1ccc(O)cc1)[C@@H](C)O)[C@@H](C)O)[C@@H](C)CC)[C@@H](C)CC)C(=O)N[C@@H](CCC(=O)O)C(=O)NCC(=O)NCC(=O)N1CCC[C@H]1C(=O)N[C@@H](CO)C(=O)N[C@@H](CO)C(=O)NCC(=O)N[C@@H](C)C(=O)N1CCC[C@H]1C(=O)N1CCC[C@H]1C(=O)N1CCC[C@H]1C(=O)N[C@@H](CO)C(N)=O` [Example 195] (H-Y[αMeP]EGTFTSDYSILLDRK([AEEA-AEEA-γGlu-C20 diacid])AQQAFIEYLIEGGPSSGAPPPS-NH2), the 50% effective concentration (EC50) in experiment [1] came to 0.0966 nM; in experiment [2], 0.193 nM.

With `CC[C@H](C)[C@H](NC(=O)[C@H](CC(C)C)NC(=O)[C@H](Cc1ccc(O)cc1)NC(=O)C(C)(C)NC(=O)[C@@H](NC(=O)[C@H](Cc1ccccc1)NC(=O)[C@H](CCC(=O)O)NC(=O)C(C)(C)NC(=O)[C@H](CCC(N)=O)NC(=O)[C@H](C)NC(=O)[C@H](CCCCNC(=O)COCCOCCNC(=O)COCCOCCNC(=O)CC[C@H](NC(=O)CCCCCCCCCCCCCCCCCCC(=O)O)C(=O)O)NC(=O)[C@H](CCC(=O)O)NC(=O)[C@H](CC(=O)O)NC(=O)[C@H](CC(C)C)NC(=O)[C@](C)(CC(C)C)NC(=O)[C@@H](NC(=O)[C@H](CO)NC(=O)[C@H](Cc1cccnc1)NC(=O)[C@H](CC(=O)O)NC(=O)[C@H](CO)NC(=O)[C@@H](NC(=O)[C@](C)(Cc1ccccc1F)NC(=O)[C@@H](NC(=O)CNC(=O)[C@H](CCC(=O)O)NC(=O)C(C)(C)NC(=O)[C@@H](N)Cc1ccc(O)cc1)[C@@H](C)O)[C@@H](C)O)[C@@H](C)CC)[C@@H](C)CC)C(=O)N[C@@H](CCC(=O)O)C(=O)NCC(=O)NCC(=O)N1CCC[C@H]1C(=O)N[C@@H](CO)C(=O)N[C@@H](CO)C(=O)NCC(=O)N[C@@H](C)C(=O)N1CCC[C@H]1C(=O)N1CCC[C@H]1C(=O)N1CCC[C@H]1C(=O)N[C@@H](CO)C(N)=O` [Example 188] (H-Y[Aib]EGT[αMePhe(2-F)]TSD[3Pal]SI[αMeL]LDEK([AEEA-AEEA-γGlu-C20 diacid])AQ[Aib]EFI[Aib]YLIEGGPSSGAPPPS-NH2), the concentration giving a half-maximal response (EC50) was 0.13 nM in experiment [1] and 0.121 nM in experiment [2].

Regarding `CC[C@H](C)[C@H](NC(=O)[C@H](CC(C)C)NC(=O)[C@H](Cc1ccc(O)cc1)NC(=O)[C@@H](CCC(=O)O)NC(=O)[C@@H](NC(=O)[C@H](Cc1ccccc1)NC(=O)[C@H](CCC(=O)O)NC(=O)C(C)(C)NC(=O)[C@H](CCC(N)=O)NC(=O)[C@H](C)NC(=O)[C@H](CCCCN)NC(=O)[C@H](CCC(=O)O)NC(=O)[C@H](CC(=O)O)NC(=O)[C@H](CC(C)C)NC(=O)[C@](C)(CC(C)C)NC(=O)[C@@H](NC(=O)[C@H](CO)NC(=O)[C@H](Cc1ccc(O)cc1)NC(=O)[C@H](CC(=O)O)NC(=O)[C@H](CO)NC(=O)[C@@H](NC(=O)[C@](C)(Cc1ccccc1F)NC(=O)[C@@H](NC(=O)CNC(=O)[C@H](CCC(=O)O)NC(=O)C(C)(C)NC(=O)[C@@H](N)Cc1ccc(O)cc1)[C@@H](C)O)[C@@H](C)O)[C@@H](C)CC)[C@@H](C)CC)C(=O)N[C@@H](CCC(=O)O)C(=O)NCC(=O)NCC(=O)N1CCC[C@H]1C(=O)N[C@@H](CO)C(=O)N[C@@H](CO)C(=O)NCC(=O)N[C@@H](C)C(=O)N1CCC[C@H]1C(=O)N1CCC[C@H]1C(=O)N1CCC[C@H]1C(=O)N[C@@H](CO)C(N)=O` [Example 276] (H-Y[Aib]EGT[αMePhe(2-F)]TSDYSI[αMeL]LDEKAQ[Aib]EFI[dE]YLIEGGPSSGAPPPS-NH2), the EC50 in experiment [1] is 0.108 nM; in experiment [2], 0.0757 nM.

In the case of `CC[C@H](C)[C@H](NC(=O)[C@H](CC(C)C)NC(=O)[C@H](Cc1ccc(O)cc1)NC(=O)[C@@H](CCC(=O)O)NC(=O)[C@@H](NC(=O)[C@H](Cc1ccccc1)NC(=O)[C@H](CCC(=O)O)NC(=O)C(C)(C)NC(=O)[C@H](CCC(N)=O)NC(=O)[C@H](C)NC(=O)[C@H](CCCCN)NC(=O)[C@H](CCCN)NC(=O)[C@H](CC(=O)O)NC(=O)[C@H](CC(C)C)NC(=O)[C@](C)(CC(C)C)NC(=O)[C@@H](NC(=O)[C@H](CO)NC(=O)[C@H](Cc1ccc(O)cc1)NC(=O)[C@H](CC(=O)O)NC(=O)[C@H](CO)NC(=O)[C@@H](NC(=O)[C@](C)(Cc1ccccc1F)NC(=O)[C@@H](NC(=O)CNC(=O)[C@H](CCC(=O)O)NC(=O)C(C)(C)NC(=O)[C@@H](N)Cc1ccc(O)cc1)[C@@H](C)O)[C@@H](C)O)[C@@H](C)CC)[C@@H](C)CC)C(=O)N[C@@H](CCC(=O)O)C(=O)NCC(=O)NCC(=O)N1CCC[C@H]1C(=O)N[C@@H](CO)C(=O)N[C@@H](CO)C(=O)NCC(=O)N[C@@H](C)C(=O)N1CCC[C@H]1C(=O)N1CCC[C@H]1C(=O)N1CCC[C@H]1C(=O)N[C@@H](CO)C(N)=O` [Example 280] (H-Y[Aib]EGT[αMePhe(2-F)]TSDYSI[αMeL]LD[Orn]KAQ[Aib]EFI[dE]YLIEGGPSSGAPPPS-NH2), the EC50 in experiment [1] was determined as 0.0767 nM; in experiment [2], 0.204 nM.

In the case of `CC[C@H](C)[C@H](NC(=O)[C@H](CC(C)C)NC(=O)[C@H](Cc1ccc(O)cc1)NC(=O)[C@@H](CCC(=O)O)NC(=O)[C@@H](NC(=O)[C@H](Cc1ccccc1)NC(=O)[C@@H](NC(=O)C(C)(C)NC(=O)[C@H](CCC(N)=O)NC(=O)[C@H](C)NC(=O)[C@H](CCCCNC(=O)COCCOCCNC(=O)COCCOCCNC(=O)CC[C@H](NC(=O)CCCCCCCCCCCCCCCCCCC(=O)O)C(=O)O)NC(=O)[C@H](CCC(=O)O)NC(=O)[C@H](CC(=O)O)NC(=O)[C@H](CC(C)C)NC(=O)[C@](C)(CC(C)C)NC(=O)[C@@H](NC(=O)[C@H](CO)NC(=O)[C@H](Cc1c[nH]cn1)NC(=O)[C@H](CC(=O)O)NC(=O)[C@H](CO)NC(=O)[C@@H](NC(=O)[C@](C)(Cc1ccccc1F)NC(=O)[C@@H](NC(=O)CNC(=O)[C@H](CCC(=O)O)NC(=O)C(C)(C)NC(=O)[C@@H](N)Cc1ccc(O)cc1)[C@@H](C)O)[C@@H](C)O)[C@@H](C)CC)[C@@H](C)O)[C@@H](C)CC)C(=O)N[C@@H](CCC(=O)O)C(=O)NCC(=O)NCC(N)=O` [Example 166] (H-Y[Aib]EGT[αMePhe(2-F)]TSDHSI[αMeL]LDEK([AEEA-AEEA-γGlu-C20 diacid])AQ[Aib]TFI[dE]YLIEGG-NH2; N-terminus assumed), the EC50 was 4.08 nM in experiment [1] and 0.355 nM in experiment [2].
